Values quoted from earlier work as cited in patent publication US8653307B2 (California Institute of Technology, priority 2011, dated 2014).

Experiments:
PI3Kα = PI3Kα (Homo sapiens, UniProt P42336)
CaCo (human colon) = CaCo (human colon) cells; read-out: IC50 (cytotoxicity)
LoVo (human colon) cells = details: read-out: IC50 (cytotoxicity)
[1] = tested on: MDA-468 breast cancer line; details: read-out: IC50 (cytotoxicity)

Sequence of PI3Kα (P42336 whole entry): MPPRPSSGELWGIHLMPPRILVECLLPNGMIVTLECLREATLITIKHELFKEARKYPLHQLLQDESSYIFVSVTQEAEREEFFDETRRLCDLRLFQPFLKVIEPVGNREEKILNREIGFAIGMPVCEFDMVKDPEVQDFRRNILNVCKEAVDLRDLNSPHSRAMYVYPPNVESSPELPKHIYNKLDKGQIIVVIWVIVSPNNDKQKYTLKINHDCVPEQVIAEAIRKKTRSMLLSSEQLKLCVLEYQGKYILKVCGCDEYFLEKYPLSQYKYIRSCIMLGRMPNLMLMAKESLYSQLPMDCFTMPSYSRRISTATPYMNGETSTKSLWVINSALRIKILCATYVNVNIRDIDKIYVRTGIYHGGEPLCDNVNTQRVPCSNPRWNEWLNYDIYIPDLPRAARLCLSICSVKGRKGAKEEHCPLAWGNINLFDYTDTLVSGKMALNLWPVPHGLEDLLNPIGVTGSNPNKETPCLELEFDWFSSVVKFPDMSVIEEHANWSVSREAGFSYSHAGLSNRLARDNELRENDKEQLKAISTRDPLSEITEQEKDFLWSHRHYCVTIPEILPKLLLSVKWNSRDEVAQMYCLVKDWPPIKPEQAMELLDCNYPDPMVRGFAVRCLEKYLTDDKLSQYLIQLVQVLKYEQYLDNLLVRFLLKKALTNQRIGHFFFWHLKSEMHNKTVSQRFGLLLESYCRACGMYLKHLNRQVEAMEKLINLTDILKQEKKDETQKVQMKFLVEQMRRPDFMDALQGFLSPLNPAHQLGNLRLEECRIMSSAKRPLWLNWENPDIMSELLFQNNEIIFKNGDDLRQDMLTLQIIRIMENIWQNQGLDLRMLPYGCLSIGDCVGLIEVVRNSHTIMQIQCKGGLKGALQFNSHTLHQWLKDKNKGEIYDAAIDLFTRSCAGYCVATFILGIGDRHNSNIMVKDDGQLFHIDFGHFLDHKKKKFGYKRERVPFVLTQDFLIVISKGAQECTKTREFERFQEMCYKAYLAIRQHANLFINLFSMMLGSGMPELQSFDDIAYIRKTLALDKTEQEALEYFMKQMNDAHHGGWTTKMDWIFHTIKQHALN
Sequence of PI3Kα (P27986 whole entry partner): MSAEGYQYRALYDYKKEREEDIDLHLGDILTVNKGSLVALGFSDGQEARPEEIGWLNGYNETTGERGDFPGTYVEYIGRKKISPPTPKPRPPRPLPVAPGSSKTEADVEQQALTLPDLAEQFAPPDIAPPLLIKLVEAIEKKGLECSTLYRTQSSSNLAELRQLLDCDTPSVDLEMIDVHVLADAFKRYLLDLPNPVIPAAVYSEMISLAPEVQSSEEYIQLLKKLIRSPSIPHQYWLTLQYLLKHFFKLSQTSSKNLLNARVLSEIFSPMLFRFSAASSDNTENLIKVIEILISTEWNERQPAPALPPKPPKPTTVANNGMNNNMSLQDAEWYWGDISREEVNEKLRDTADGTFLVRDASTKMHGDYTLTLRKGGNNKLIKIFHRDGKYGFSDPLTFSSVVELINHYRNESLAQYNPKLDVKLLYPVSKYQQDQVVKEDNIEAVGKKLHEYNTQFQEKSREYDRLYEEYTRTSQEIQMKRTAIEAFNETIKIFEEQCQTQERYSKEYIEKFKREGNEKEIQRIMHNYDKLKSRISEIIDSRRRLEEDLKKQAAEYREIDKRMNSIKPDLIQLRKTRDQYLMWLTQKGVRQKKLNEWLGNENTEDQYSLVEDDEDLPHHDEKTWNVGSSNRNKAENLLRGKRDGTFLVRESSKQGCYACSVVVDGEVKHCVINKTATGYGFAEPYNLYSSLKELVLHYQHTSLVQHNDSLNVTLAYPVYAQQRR

Row | Molecule | selectivity among PI3Ks / related enzymes (in words) (PI3Kα) | IC50 (CaCo (human colon)) [nM] | IC50 (LoVo (human colon) cells) [nM] | IC50 [1] [nM]
1 | O=c1cc(N2CCOCC2)oc2c(-c3ccccc3)cccc12 [LY294002] | somewhat selective |  |  | 
2 | liphagal |  | 670 | 580 | 1580
